Marks after values point to notes of the source that are not given here.
Key:
Pdr5p ATPase = biological target: T1, Pdr5p ATPase (Saccharomyces cerevisiae, UniProt P33302); test: Oligomycin sensitive ATPase activity of AD124567 plasma membranes; format: biochemical, S. cerevisiae
T1 construct: plasma membranes from the AD124567 yeast strain overexpressing Pdr5p; endogenous in cells; host or cells: S. cerevisiae AD124567 (pdr1-3, PDR5 intact), plasma membrane fraction
Method: (A) Inhibition profiles of oligomycin-sensitive Pdr5p ATPase activity by the purified peptides D-NH2-asparagine-tryptophan-tryptophan-lysine-valine-arginine-arginine-arginine-CONH2 (KN0) and its singly substituted Mtr-derivative KN20. (B) Inhibition profile with KN20 on the oligomycin-sensitive Cdr1p ATPase activity of plasma membranes from AD1002 minus the oligomycin-sensitive ATPase activity of plasma membranes from the isogenic AD1-8u^− strain.
Yeast were grown in YEPD, pH 5.5 at 30° C. until they reached late-exponential phase of growth (OD600 nm=7), washed twice in ice-cold distilled water, and incubated on ice for 30 min to minimize glucose-stimulated Pma1p activity. Cells were resuspended in homogenising medium (50 mM Tris pH 7.5, 2 mM EDTA and 1 mM phenylmethylsulfonyl fluoride) and disrupted using a Braun Homogeniser. Cell debris and unbroken cells were removed by centrifuging at 2,000×g at 4° C. for 10 min. A crude membrane fraction was isolated from the cell-free supernatant by centrifuging at 30,000×g at 4° C. for 45 min. Plasma membranes were prepared by centrifugation of the supernatant obtained after selective precipitation of mitochondria at pH 5.2 as described previously (Goffeau, A. and Dufour, J. P., 1988). […] Protein was determined using a micro-Bradford (Bio-Rad Laboratories, Hercules, Calif. [Bradford, M. M., 1976]) assay with gamma-globulin as standard. Nucleotide triphosphatase activity was measured by incubating the plasma membrane fractions (10 μg) at 30° C. in a final volume of 120 μl containing 6 mM NTP, 7 mM MgSO4 in 59 mM MES-Tris buffer pH 6.0-8.0. […] Other ATPase inhibitors (20 μM oligomycin, 20 μM aurovertin B or 100 μM vanadate were added to the reaction where indicated. After 30 min the reaction was stopped by adding 130 μl of a solution containing 1% (w/v) SDS, 0.6 M H2SO4, 1.2% (w/v) ammonium molybdate and 1.6% (w/v) ascorbic acid. Inorganic phosphate released from NTPs was measured at 750 nm after 10 min incubation at room temperature.

[1] = test system: S. cerevisiae AD-BEN^R (Ben^Rp); test: Checkerboard chemosensitisation to fluconazole; format: cell-based
Method: (§1) The assays were conducted, as described in Materials and methods for Example 4, in the presence of the indicated concentrations of fluconazole and KN20. D indicates cell death as measured by a failure to recover any colony forming units when samples from microtitre plate wells were cultured on solid YPD medium.
(§2) Checkerboard drug susceptibility assays were used to measure the chemosensitisation of cells to fluconazole by test compounds such as Pdr5p inhibitors. Fluconazole concentration in the CSM-URA medium was varied in one dimension (between 0 and 80 μg/ml) and the concentration of the test compound was varied in the second dimension (between 0 and 40 μM). Cell inocula, growth conditions and the optical determination of growth were identical to standard liquid MIC determinations. The assays were conducted in 6 by 6 well arrays centred in a 96 well microtitre plate using buffered CSM-URA medium at pH 7.0, with fluconazole and/or peptide included in each well at the indicated concentration.

[2] = test system: S. cerevisiae AD-ERG11 (Erg11p); test: Checkerboard chemosensitisation to fluconazole; format: cell-based
Method: as §1, §2

C. krusei B2399 = test: Checkerboard chemosensitisation to fluconazole; format: cell-based
Method: as §2

[3] = test system: S. cerevisiae 4 (CgPdh1p); test: Checkerboard chemosensitisation to fluconazole; format: cell-based
Method: as §2

C. glabrata CBS138 = test: Checkerboard chemosensitisation to fluconazole; format: cell-based
Method: as §2

[4] = test system: S. cerevisiae 27A (CaCdr2p); test: Checkerboard chemosensitisation to fluconazole; format: cell-based
Method: as §2

C. dubliniensis CD36 = test: Checkerboard chemosensitisation to fluconazole; format: cell-based
Method: as §2

[5] = test system: S. cerevisiae 1B (CgCdr1p); test: Checkerboard chemosensitisation to fluconazole; format: cell-based
Method: as §2

[6] = test system: S. cerevisiae AD12345678u-; test: Checkerboard chemosensitisation to fluconazole; format: cell-based
Method: as §2

C. albicans FR2 (Ben^Rp) = test: Checkerboard chemosensitisation to fluconazole; format: cell-based
Method: as §2

C. tropicalis IFO0618 = test: Checkerboard chemosensitisation to fluconazole; format: cell-based
Method: as §2

Cdr1p ATPase = biological target: T2, Cdr1p ATPase (Candida albicans, UniProt P43071, E1416A/I916V/K1177E/L1021S/Q214E/T842S/Y427F); test: Oligomycin sensitive ATPase/NTPase activity of AD1002 plasma membranes; format: biochemical, C. albicans
T2 construct: expressed in transfected cells; host or cells: S. cerevisiae AD1-8u- with pKEN1002 integrated at the PDR5 locus (strain AD1002), plasma membrane fraction
Method: Membrane fractions were isolated from S. cerevisiae AD1002 (▪) or parental AD1-8u^− cells (●). ATPase assays were carried out at 30° C. for 30 min, as described in Materials and methods for Example 2. The oligomycin-sensitive activity was determined as the difference in ATPase activity in the presence and absence of 20 μM oligomycin. […] The results are the means (+/−SD) of four determinations carried out on two membrane preparations.
(B) Inhibition profile with KN20 on the oligomycin-sensitive Cdr1p ATPase activity of plasma membranes from AD1002 minus the oligomycin-sensitive ATPase activity of plasma membranes from the isogenic AD1-8u^− strain.
Yeast were grown in YEPD, pH 5.5 at 30° C. until they reached late-exponential phase of growth (OD600 nm=7), washed twice in ice-cold distilled water, and incubated on ice for 30 min to minimize glucose-stimulated Pma1p activity. Cells were resuspended in homogenising medium (50 mM Tris pH 7.5, 2 mM EDTA and 1 mM phenylmethylsulfonyl fluoride) and disrupted using a Braun Homogeniser. Cell debris and unbroken cells were removed by centrifuging at 2,000×g at 4° C. for 10 min. A crude membrane fraction was isolated from the cell-free supernatant by centrifuging at 30,000×g at 4° C. for 45 min. Plasma membranes were prepared by centrifugation of the supernatant obtained after selective precipitation of mitochondria at pH 5.2 as described previously (Goffeau, A. and Dufour, J. P., 1988). The plasma membranes were resuspended in 10 mM Tris pH 7.0, 0.5 mM EDTA and 20% [v/v] glycerol and stored at −80° C. Protein was determined using a micro-Bradford (Bio-Rad Laboratories, Hercules, Calif. [Bradford, M. M., 1976]) assay with gamma-globulin as standard. Nucleotide triphosphatase activity was measured by incubating the plasma membrane fractions (10 μg) at 30° C. in a final volume of 120 μl containing 6 mM NTP, 7 mM MgSO4 in 59 mM MES-Tris buffer pH 6.0-8.0. To eliminate possible contributions from nonspecific phosphatases, vacuolar, or mitochondrial ATPases, 0.2 mM ammonium molybdate, 50 mM KNO3 and 10 mM NaN3, respectively, were included in assays (Monk B C, et al, 1991). Other ATPase inhibitors (20 μM oligomycin, 20 μM aurovertin B or 100 μM vanadate were added to the reaction where indicated. After 30 min the reaction was stopped by adding 130 μl of a solution containing 1% (w/v) SDS, 0.6 M H2SO4, 1.2% (w/v) ammonium molybdate and 1.6% (w/v) ascorbic acid. Inorganic phosphate released from NTPs was measured at 750 nm after 10 min incubation at room temperature.

[7] = test system: S. cerevisiae AD124567 (Pdr5p); test: Checkerboard chemosensitisation to fluconazole; format: cell-based
Method: (A) Checkerboard drug susceptibility assay of AD124567 in the presence of the indicated concentrations of fluconazole and KN20. (B) Disk drug susceptibility assay of AD124567. This assay was conducted, as described in Materials and methods for example 4, in the absence or presence of fluconazole (120 μg/ml), and in the presence of (1) KN0 (47 nanomole), (2) KN20 (47 nanomole) or (0) control amounts of DMSO applied to disks
as §2

T1 sequence (P33302 whole entry): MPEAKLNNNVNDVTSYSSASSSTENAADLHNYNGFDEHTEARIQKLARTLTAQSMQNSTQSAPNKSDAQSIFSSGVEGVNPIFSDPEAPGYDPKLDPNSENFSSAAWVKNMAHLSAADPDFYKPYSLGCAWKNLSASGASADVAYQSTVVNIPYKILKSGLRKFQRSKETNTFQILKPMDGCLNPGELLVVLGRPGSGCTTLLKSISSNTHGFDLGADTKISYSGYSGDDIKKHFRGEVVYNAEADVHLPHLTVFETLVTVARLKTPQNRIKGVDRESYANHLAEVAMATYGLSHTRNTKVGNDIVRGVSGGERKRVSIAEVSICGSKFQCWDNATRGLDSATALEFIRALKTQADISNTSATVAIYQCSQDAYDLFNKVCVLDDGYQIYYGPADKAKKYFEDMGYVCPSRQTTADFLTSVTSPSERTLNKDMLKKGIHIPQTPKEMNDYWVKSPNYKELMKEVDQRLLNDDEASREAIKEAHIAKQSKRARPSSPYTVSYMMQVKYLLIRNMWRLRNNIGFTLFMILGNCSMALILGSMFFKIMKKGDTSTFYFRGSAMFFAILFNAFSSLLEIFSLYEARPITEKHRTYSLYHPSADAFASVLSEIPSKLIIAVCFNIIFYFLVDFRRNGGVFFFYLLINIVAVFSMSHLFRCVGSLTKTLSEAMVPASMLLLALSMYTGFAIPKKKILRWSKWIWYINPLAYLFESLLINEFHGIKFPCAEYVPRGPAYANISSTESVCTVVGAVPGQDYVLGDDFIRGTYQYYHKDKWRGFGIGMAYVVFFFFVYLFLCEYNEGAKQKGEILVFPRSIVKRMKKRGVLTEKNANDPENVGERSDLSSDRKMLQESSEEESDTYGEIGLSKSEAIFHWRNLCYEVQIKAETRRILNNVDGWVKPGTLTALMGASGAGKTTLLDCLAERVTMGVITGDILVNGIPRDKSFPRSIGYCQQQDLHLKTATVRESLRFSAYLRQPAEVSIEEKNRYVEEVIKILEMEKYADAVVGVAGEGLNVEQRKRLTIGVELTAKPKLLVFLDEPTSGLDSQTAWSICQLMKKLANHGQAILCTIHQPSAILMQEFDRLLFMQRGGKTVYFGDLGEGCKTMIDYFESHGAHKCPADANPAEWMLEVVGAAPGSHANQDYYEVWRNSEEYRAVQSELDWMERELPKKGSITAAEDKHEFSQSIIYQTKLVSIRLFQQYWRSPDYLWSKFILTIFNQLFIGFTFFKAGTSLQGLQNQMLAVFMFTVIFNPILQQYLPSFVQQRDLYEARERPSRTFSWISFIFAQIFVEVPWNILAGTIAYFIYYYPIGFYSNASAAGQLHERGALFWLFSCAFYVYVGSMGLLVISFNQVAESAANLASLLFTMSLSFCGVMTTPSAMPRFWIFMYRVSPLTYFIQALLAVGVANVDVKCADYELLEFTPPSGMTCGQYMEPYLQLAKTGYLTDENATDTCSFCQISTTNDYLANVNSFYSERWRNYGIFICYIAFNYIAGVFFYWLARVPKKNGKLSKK
T2 sequence (P43071 whole entry Q214E/Y427F/T842S/I916V/L1021S/K1177E/E1416A): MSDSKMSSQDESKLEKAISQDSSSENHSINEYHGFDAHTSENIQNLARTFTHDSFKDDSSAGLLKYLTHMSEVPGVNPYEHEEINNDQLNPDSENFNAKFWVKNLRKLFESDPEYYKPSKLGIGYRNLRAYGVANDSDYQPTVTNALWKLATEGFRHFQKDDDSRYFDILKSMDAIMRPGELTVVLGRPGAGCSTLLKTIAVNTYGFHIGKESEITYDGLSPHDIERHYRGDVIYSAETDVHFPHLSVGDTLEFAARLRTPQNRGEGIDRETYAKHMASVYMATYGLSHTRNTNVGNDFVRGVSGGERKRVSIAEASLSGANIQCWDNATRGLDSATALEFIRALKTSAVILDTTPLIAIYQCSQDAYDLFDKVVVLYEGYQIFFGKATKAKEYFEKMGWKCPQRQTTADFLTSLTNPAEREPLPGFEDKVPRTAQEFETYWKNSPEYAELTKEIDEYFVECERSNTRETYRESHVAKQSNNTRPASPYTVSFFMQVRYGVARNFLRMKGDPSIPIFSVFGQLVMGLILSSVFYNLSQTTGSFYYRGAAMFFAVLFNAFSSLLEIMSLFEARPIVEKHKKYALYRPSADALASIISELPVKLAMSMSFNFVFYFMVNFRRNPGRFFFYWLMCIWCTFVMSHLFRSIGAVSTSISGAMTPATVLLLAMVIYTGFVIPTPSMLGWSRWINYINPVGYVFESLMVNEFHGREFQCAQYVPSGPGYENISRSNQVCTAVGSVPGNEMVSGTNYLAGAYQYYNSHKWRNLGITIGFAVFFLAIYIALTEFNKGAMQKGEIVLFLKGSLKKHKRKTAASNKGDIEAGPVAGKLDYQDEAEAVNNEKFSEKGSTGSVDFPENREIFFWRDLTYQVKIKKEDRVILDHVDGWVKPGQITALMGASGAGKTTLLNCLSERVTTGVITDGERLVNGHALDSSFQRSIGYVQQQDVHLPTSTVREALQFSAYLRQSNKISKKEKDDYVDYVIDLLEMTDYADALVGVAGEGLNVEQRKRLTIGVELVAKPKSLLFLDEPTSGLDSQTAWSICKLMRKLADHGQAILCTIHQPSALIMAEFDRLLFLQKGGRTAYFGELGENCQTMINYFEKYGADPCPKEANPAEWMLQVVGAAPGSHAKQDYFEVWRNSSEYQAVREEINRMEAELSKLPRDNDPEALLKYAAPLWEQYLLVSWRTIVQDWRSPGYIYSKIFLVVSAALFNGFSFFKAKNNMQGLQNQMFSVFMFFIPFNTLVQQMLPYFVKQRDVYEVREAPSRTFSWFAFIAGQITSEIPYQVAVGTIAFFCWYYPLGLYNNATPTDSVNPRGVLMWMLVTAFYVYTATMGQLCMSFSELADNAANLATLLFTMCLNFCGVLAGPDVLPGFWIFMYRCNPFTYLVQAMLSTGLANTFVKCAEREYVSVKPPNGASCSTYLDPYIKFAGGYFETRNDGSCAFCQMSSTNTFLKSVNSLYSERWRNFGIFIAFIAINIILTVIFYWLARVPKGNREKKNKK

D-octapeptide NH2-Asn-Trp-Trp-Lys-Val-Arg-Arg-Arg-CONH2 with a single 4-methoxy-2,3,6-trimethylbenzenesulphonyl (Mtr) substituent on one tryptophan sidechain; Pdr5p inhibitor [KN20]
IC50 (Pdr5p ATPase; plasma membranes from AD124567 overexpressing Pdr5p, pH 7.5, read-out: 150 for oligomycin sensitive ATPase activity): ~3 µM | Chemosensitising concentration KN20 [1]: 20 µM | Fold-sensitisation by KN20 (For FCZ MIC) [1]: 16 fold | Chemosensitising concentration KN20 ([2]; AD-ERG11 (Erg11p)): 20 µM | Fold-sensitisation by KN20 (For FCZ MIC) ([2]; AD-ERG11 (Erg11p)): 8 fold | Chemosensitising concentration KN20 (C. krusei B2399; C. krusei B2399): 80 µM | Fold-sensitisation by KN20 (For FCZ MIC) (C. krusei B2399; C. krusei B2399): 2.5 fold | Chemosensitising concentration KN20 [3]: 20 µM | Fold-sensitisation by KN20 (For FCZ MIC) [3]: 16 fold | Chemosensitising concentration KN20 (C. glabrata CBS138; C. glabrata CBS138): 40 µM | Fold-sensitisation by KN20 (For FCZ MIC) (C. glabrata CBS138; C. glabrata CBS138): 4 fold | Chemosensitising concentration KN20 [4]: 20 µM | Fold-sensitisation by KN20 (For FCZ MIC) [4]: 4 fold | Chemosensitising concentration KN20 (C. dubliniensis CD36; C. dubliniensis CD36): 80 µM | Fold-sensitisation by KN20 (For FCZ MIC) (C. dubliniensis CD36; C. dubliniensis CD36, resistant tail eliminated): 64.5^a fold | Chemosensitising concentration KN20 [5]: 15 µM | Fold-sensitisation by KN20 (For FCZ MIC) [5]: 8 fold | Chemosensitising concentration KN20 ([6]; S. cerevisiae AD12345678u-): 7.5 µM | Fold-sensitisation by KN20 (For FCZ MIC) ([6]; S. cerevisiae AD12345678u-): 2 fold | Chemosensitising concentration KN20 (C. albicans FR2 (Ben^Rp)): 20 µM | Fold-sensitisation by KN20 (For FCZ MIC) (C. albicans FR2 (Ben^Rp)): 4 fold | Chemosensitising concentration KN20 (C. tropicalis IFO0618; C. tropicalis IFO0618): 10 µM | Fold-sensitisation by KN20 (For FCZ MIC) (C. tropicalis IFO0618; C. tropicalis IFO0618, resistant tail eliminated): 16^a fold | IC50 (Cdr1p ATPase; AD1002 plasma membranes, read-out: 150 for oligomycin sensitive ATPase activity): ~8 µM | Chemosensitising concentration KN20 ([7]; AD124567 (Pdr5p)): 20 µM | Fold-sensitisation by KN20 (For FCZ MIC) ([7]; AD124567 (Pdr5p)): 10 fold | KN20 concentration that chemosensitised the Pdr5p overexpressing strain to fluconazole ([7]; pH 7): 30 µM

OC(Cn1cncn1)(Cn1cncn1)c1ccc(F)cc1F [fluconazole]
effect on oligomycin sensitive Pdr5p ATPase activity (Pdr5p ATPase; in vitro): does not affect | Chemosensitising concentration FCZ ([1]; with KN20): 3.75 µg/mL | Chemosensitising concentration FCZ [2]: 0.25 µg/mL | Chemosensitising concentration FCZ (C. krusei B2399): 80 µg/mL | Chemosensitising concentration FCZ ([3]; with KN20): 1.25 µg/mL | Chemosensitising concentration FCZ (C. glabrata CBS138): 20 µg/mL | Chemosensitising concentration FCZ ([4]; with KN20): 20 µg/mL | Chemosensitising concentration FCZ (C. dubliniensis CD36): 0.31 µg/mL | Chemosensitising concentration FCZ ([5]; with KN20): 40 µg/mL | Chemosensitising concentration FCZ [6]: 0.125 µg/mL | Chemosensitising concentration FCZ (C. albicans FR2 (Ben^Rp); with KN20): 8 µg/mL | Chemosensitising concentration FCZ (C. tropicalis IFO0618): 10 µg/mL | effect on oligomycin sensitive Cdr1p ATPase activity (Cdr1p ATPase; in vitro): does not affect | Chemosensitising concentration FCZ [7]: 60 µg/mL
